Data on 37 compounds can be found in US8618151B2, “Inhibitors of HCV NS5A” (Presidio Pharmaceuticals, Inc., priority 2008, dated 2013).

The assay deals with HCV genotype 1b replicon. Nature of the assay: HCV replicon assay (1b_Huh-Luc/Neo-ET cell line, luciferase readout). The class given is cell-based. To be noted: Hepatitis C virus, Huh-7, 72 h, read-out: Inhibition of HCV genotype 1b. Here is the method:
Biological activity of the compounds of the invention was determined using an HCV replicon assay. The 1b_Huh-Luc/Neo-ET cell line persistently expressing a bicistronic genotype 1b replicon in Huh 7 cells was obtained from ReBLikon GMBH. This cell line was used to test compound inhibition using luciferase enzyme activity readout as a measurement of compound inhibition of replicon levels.
On Day 1 (the day after plating), each compound is added in triplicate to the cells. Plates incubated for 72 h prior to running the luciferase assay. Enzyme activity was measured using a Bright-Glo Kit (cat. number E2620) manufactured by Promega Corporation. The following equation was used to generate a percent control value for each compound. % Control=(Average Compound Value/Average Control)*100
The EC50 value was determined using GraphPad Prism and the following equation: Y=Bottom+(Top−Bottom)/1+10^((Log IC50−X)*HillSlope))
EC50 values of compounds are repeated several times in the replicon assay.
As to `COC(=O)N[C@H](C(=O)N1CCC[C@H]1c1nc(-c2ccc3[nH]c(-c4ccc(-c5cnc([C@@H]6CCCN6C(=O)[C@@H](NC(=O)OC)C(C)C)[nH]5)cc4)cc(=O)c3c2)c[nH]1)C(C)C` [compound 76], the EC50 is under 1 nM. With `COC(=O)N[C@@H](C(=O)N1CCC[C@H]1c1nc(-c2ccc3[nH]c(-c4ccc(-c5cnc([C@@H]6CCCN6C(=O)[C@H](NC(=O)OC)c6ccccc6)[nH]5)cc4)cc(=O)c3c2)c[nH]1)c1ccccc1` [compound 77], the EC50 was 10 to 999 nM. In the case of `COC(=O)N[C@@H](C(=O)N1CCC[C@H]1c1nc(-c2ccc3nc(-c4ccc(-c5cnc([C@@H]6CCCN6C(=O)[C@H](NC(=O)OC)c6ccccc6)[nH]5)cc4)cc(OC)c3c2)c[nH]1)c1ccccc1` [compound 78] it was under 1 nM; in that of `COC(=O)N[C@H](C(=O)N1CCC[C@H]1c1nc(-c2ccc3nc(-c4ccc(-c5cnc([C@@H]6CCCN6C(=O)[C@@H](NC(=O)OC)C(C)C)[nH]5)cc4)cc(OC)c3c2)c[nH]1)C(C)C` [compound 79], under 1 nM; in that of `COC(=O)N[C@@H](C(=O)N1CCC[C@H]1c1nc(-c2cnc3cc(-c4ccc(-c5cnc([C@@H]6CCCN6C(=O)[C@H](NC(=O)OC)c6ccccc6)[nH]5)cn4)ccc3c2)c[nH]1)c1ccccc1` [compound 80], under 1 nM.

Take `COC(=O)N[C@H](C(=O)N1CCC[C@H]1c1ncc(-c2ccc(-c3ccc4cc(-c5c[nH]c([C@@H]6CCCN6C(=O)[C@H](NC(=O)OC6CCOCC6)c6ccccc6)n5)cnc4c3)nc2)[nH]1)C(C)C` [compound 81]: the EC50 was under 1 nM. With `COC(=O)N[C@H](C(=O)N1CCC[C@H]1c1ncc(-c2ccc(-c3ccc4cc(-c5c[nH]c([C@@H]6CCCN6C(=O)[C@H](NC(=O)OC(C)(C)C)c6ccccc6)n5)cnc4c3)nc2)[nH]1)C(C)C` [compound 82], the EC50 is under 1 nM. Turning to `COC(=O)N[C@H](C(=O)N1CCC[C@H]1c1nc(-c2ccc3cc(-c4ccc(-c5cnc([C@@H]6CCCN6C(=O)[C@@H](NC(=O)OC)C(C)C)[nH]5)nc4)ccc3c2)c[nH]1)C(C)C` [compound 83], the EC50 is under 1 nM. In the case of `COC(=O)N[C@H](C(=O)N1CCC[C@H]1c1nc(-c2ccc3cc(-c4ccc(-c5cnc([C@@H]6CCCN6C(=O)[C@@H](NC(=O)OC)C6CCOCC6)[nH]5)nc4)ccc3c2)c[nH]1)C(C)C` [compound 84] it was under 1 nM; in that of `COC(=O)N[C@H](C(=O)N1CCC[C@H]1c1nc(-c2ccc3cc(-c4ccc(-c5cnc([C@@H]6CCCN6C(=O)[C@@H](NC(=O)OC)C(C)C)[nH]5)cc4C)ccc3c2)c[nH]1)C(C)C` [compound 85], under 1 nM. With `COC(=O)N[C@H](C(=O)N1CCC[C@H]1c1nc(-c2ccc3cc(-c4ccc(-c5cnc([C@@H]6CCCN6C(=O)[C@@H](NC(=O)OC)C6CCOCC6)[nH]5)cc4C)ccc3c2)c[nH]1)C(C)C` [compound 86], the EC50 is under 1 nM. In the case of `COC(=O)N[C@H](C(=O)N1CCC[C@H]1c1ncc(-c2ccc(-c3ccc4cc(-c5c[nH]c([C@@H]6CCCN6C(=O)[C@H](NC(=O)OC)c6ccccc6)n5)ccc4c3)c(C)c2)[nH]1)C(C)C` [compound 87] it was under 1 nM; in that of `COC(=O)N[C@H](C(=O)N1CCC[C@H]1c1nc(-c2cnc3cc(-c4ccc(-c5cnc([C@@H]6CCCN6C(=O)[C@H](NC(=O)OC6CCOCC6)c6ccccc6)[nH]5)cc4)ccc3c2)c[nH]1)C(C)C` [compound 88], under 1 nM. With `COC(=O)N[C@H](C(=O)N1CCC[C@H]1c1nc(-c2cnc3cc(-c4ccc(-c5cnc([C@@H]6CCCN6C(=O)[C@H](NC(=O)OC6CCOCC6)c6ccccc6)[nH]5)cc4)ccc3c2)c[nH]1)C1CCOCC1` [compound 89] the figure was under 1 nM; with `COC(=O)N[C@H](C(=O)N1CCC[C@H]1c1ncc(-c2ccc(-c3ccc4cc(-c5c[nH]c([C@@H]6CCCN6C(=O)[C@H](NC(=O)OC)c6ccccc6)n5)ccc4n3)cc2)[nH]1)C1CCOCC1` [compound 90], under 1 nM; with `COC(=O)N[C@H](C(=O)N1CCC[C@H]1c1ncc(-c2ccc(-c3ccc4cc(-c5c[nH]c([C@@H]6CCCN6C(=O)[C@H](NC(=O)OC(C)(C)C)c6ccccc6)n5)ccc4n3)cc2)[nH]1)C1CCOCC1` [compound 91], under 1 nM.

`COC(=O)N[C@H](C(=O)N1CCC[C@H]1c1ncc(-c2ccc(-c3ccc4cc(-c5c[nH]c([C@@H]6CCCN6C(=O)[C@H](NC(=O)OC6CCOCC6)c6ccccc6)n5)ccc4n3)cc2)[nH]1)C1CCOCC1` [compound 92]: the EC50 is under 1 nM.

Consider `COC(=O)N[C@H](C(=O)N1CCC[C@H]1c1nc(-c2cnc3cc(-c4ccc(-c5cnc([C@@H]6CCCN6C(=O)[C@@H](NC(=O)OC)C(C)C)[nH]5)nc4)ccc3c2)c[nH]1)C(C)C` [compound 93], for which the EC50 was under 1 nM. With `COC(=O)N[C@H](C(=O)N1CCC[C@H]1c1ncc(-c2ccc(-c3ccc4cc(-c5c[nH]c([C@@H]6CCCN6C(=O)[C@H](NC(=O)OC)c6ccccc6)n5)cnc4c3)cn2)[nH]1)C(C)C` [compound 94] the figure was under 1 nM; with `COC(=O)N[C@H](C(=O)N1CCC[C@H]1c1ncc(-c2ccc(-c3ccc4cc(-c5c[nH]c([C@@H]6CCCN6C(=O)[C@@H](NC(=O)OC)C6CCOCC6)n5)cnc4c3)cn2)[nH]1)C(C)C` [compound 95], under 1 nM; with `COC(=O)N[C@H](C(=O)N1CCC[C@H]1c1nc(-c2ccc3nc(-c4ccc(-c5cnc([C@@H]6CCCN6C(=O)[C@@H](NC(=O)OC)C(C)C)[nH]5)cc4F)ccc3c2)c[nH]1)C(C)C` [compound 96], under 1 nM.

Regarding `COC(=O)N[C@@H](C(=O)N1CCC[C@H]1c1nc(-c2ccc3nc(-c4ccc(-c5cnc([C@@H]6CCCN6C(=O)[C@H](NC(=O)OC)c6ccccc6)[nH]5)cc4F)ccc3c2)c[nH]1)c1ccccc1` [compound 97], the EC50 is under 1 nM. With `COC(=O)N[C@H](C(=O)N1CCC[C@H]1c1nc(-c2ccc3nc(-c4ccc(-c5cnc([C@@H]6CCCN6C(=O)[C@@H](NC(=O)OC)C6CCOCC6)[nH]5)cc4F)ccc3c2)c[nH]1)C1CCOCC1` [compound 98] the figure was under 1 nM; with `COC(=O)N[C@H](C(=O)N1CCC[C@H]1c1nc(-c2ccc3cc(-c4ccc(-c5cnc([C@@H]6CCCN6C(=O)[C@H](NC(=O)OC)c6ccccc6)[nH]5)cc4)ccc3c2)c[nH]1)C1CCOCC1` [compound 99], under 1 nM. With `COC(=O)N[C@H](C(=O)N1CCC[C@H]1c1nc(-c2ccc3cc(-c4ccc(-c5cnc([C@@H]6CCCN6C(=O)[C@H](NC(=O)OC)c6ccccc6)[nH]5)cc4)ncc3c2)c[nH]1)C1CCOCC1` [compound 100] the figure was under 1 nM. In the case of `COC(=O)N[C@H](C(=O)N1CCC[C@H]1c1ncc(-c2ccc(-c3cc4ccc(-c5c[nH]c([C@@H]6CCCN6C(=O)[C@H](NC(=O)OC)c6ccccc6)n5)cc4cn3)cc2)[nH]1)C1CCOCC1` [compound 101], the EC50 is under 1 nM. For `COC(=O)N[C@H](C(=O)N1CCC[C@H]1c1nc(-c2ccc3cc(-c4ccc(-c5cnc([C@@H]6CCCN6C(=O)[C@@H](NC(=O)OC)C(C)C)[nH]5)cc4)ccc3n2)c[nH]1)C(C)C` [compound 102], the EC50 was under 1 nM.

`COC(=O)N[C@H](C(=O)N1CCC[C@H]1c1ncc(-c2ccc(-c3ccc4nc(-c5c[nH]c([C@@H]6CCCN6C(=O)[C@H](NC(=O)OC)c6ccccc6)n5)ccc4c3)cc2)[nH]1)C(C)C` [compound 103]: the EC50 is under 1 nM. With `COC(=O)N[C@H](C(=O)N1CCC[C@H]1c1ncc(-c2ccc(-c3ccc4cc(-c5c[nH]c([C@@H]6CCCN6C(=O)[C@@H](NC(=O)OC)C6CCOCC6)n5)ccc4c3)c(C)c2)[nH]1)C(C)C` [compound 104] the figure was under 1 nM; with `COC(=O)N[C@H](C(=O)N1CCC[C@H]1c1ncc(-c2ccc(-c3ccc4cc(-c5c[nH]c([C@@H]6CCCN6C(=O)[C@H](NC(=O)OC)c6ccccc6)n5)ccc4c3)cc2)[nH]1)C1CCOCC1` [compound 105], under 1 nM.

For the compound `COC(=O)N[C@H](C(=O)N1CCC[C@H]1c1ncc(-c2ccc(-c3ccc4cc(-c5c[nH]c([C@@H]6CCCN6C(=O)[C@H](NC(=O)OC)c6ccccc6)n5)ccc4c3)c(F)c2)[nH]1)C1CCOCC1` [compound 106], the EC50 was under 1 nM.

As for `COC(=O)N[C@H](C(=O)N1CCC[C@H]1c1nc(-c2ccc3nc(-c4ccc(-c5cnc([C@@H]6CCCN6C(=O)[C@H](NC(=O)OC)c6ccccc6)[nH]5)cc4F)ccc3c2)c[nH]1)C(C)C` [compound 107], the EC50 was under 1 nM. With `COC(=O)N[C@H](C(=O)N1CCC[C@H]1c1nc(-c2ccc3nc(-c4ccc(-c5cnc([C@@H]6CCCN6C(=O)[C@@H](NC(=O)OC)C6CCOCC6)[nH]5)c(F)c4)ccc3c2)c[nH]1)C1CCOCC1` [compound 108] the figure was under 1 nM; with `COC(=O)N[C@@H](C(=O)N1CCC[C@H]1c1nc(-c2ccc3nc(-c4ccc(-c5cnc([C@@H]6CCCN6C(=O)[C@H](NC(=O)OC)c6ccccc6)[nH]5)c(F)c4)ccc3c2)c[nH]1)c1ccccc1` [compound 109], under 1 nM. In the case of `COC(=O)N[C@H](C(=O)N1CCC[C@H]1c1nc(-c2ccc3cc(-c4ccc(-c5cnc([C@@H]6CCCN6C(=O)[C@H](NC(=O)OC)c6ccsc6)[nH]5)cc4)ccc3c2)c[nH]1)C1CCOCC1` [compound 110] it was under 1 nM. Regarding `COC(=O)N[C@H](C(=O)N1CCC[C@H]1c1nc(-c2ccc3cc(-c4ccc(-c5cnc([C@@H]6CCCN6C(=O)[C@H](NC(=O)OC)c6ccc(F)cc6)[nH]5)cc4)ccc3c2)c[nH]1)C1CCOCC1` [compound 111], the EC50 is under 1 nM. With `COC(=O)N[C@H](C(=O)N1CCC[C@H]1c1nc(-c2ccc3cc(-c4ccc(-c5cnc([C@@H]6CCCN6C(=O)[C@@H](NC(=O)OC6CCOCC6)c6ccccc6)[nH]5)cc4)ccc3c2)c[nH]1)C1CCOCC1` [compound 112] the figure was under 1 nM.
